From US9873670B2, “Arylquinoline and analog compounds and use thereof to treat cancer” (UNIVERSITY OF KENTUCKY RESEARCH FOUNDATION, priority 2013, dated 2018)

Tests used:
normal HEL cells = assay: Apoptosis of normal cells in co-culture experiments; type: cell-based, human; details: 500 nM
Protocol: (§1) See Hebbar, N., Wang, C. & Rangnekar, V. M. J Cell Phys 227, 3715-3721 (2012) and Shrestha-Bhattarai, T., Hebbar, N. & Rangnekar, V. M. Cancer Cell 24, 3-5 (2013). A total of three independent experiments were performed; and approximately 500 cells were scored in each experiment for apoptosis under a fluorescent microscope. Cell surface GRP78 expression on the cancer cell surface was quantified by FACS analysis in the Flow Cytometry Shared Resource Facility, Markey Cancer Center as previously described. See Hebbar, N., Wang, C. & Rangnekar, V. M. J Cell Phys 227, 3715-3721 (2012).

vimentin = assay: Pull-down with biotinylated arylquin to identify target protein; type: binding, mouse (MEFs), human (HEL); details: lysates of MEFs and HEL cells, biotinylated analog
Protocol: Pull down experiments: To identify the target protein for compound Arylquin 1, pull-down experiments were performed as described previously. See Bargagna-Mohan, P., et al. J Biol Chem 285, 7657-7669 (2010). MEFs or HEL cells (grown to confluence in 15 cm plates) were lysed in […] lysis buffer (40 mM Hepes, pH 7.8; 140 mM NaCl; 10 mM NaF; 10% Glycerol, 1 mM EDTA; 1% Triton 100), and the lysates were pre-cleared at 4° C. for 1 h with 100 μL streptavidin beads (Novagen, Strep-Tactin Superflow Agarose). Binding reactions were performed by incubating the pre-cleared cell lysates with 50 μL beads±25 μg of biotinylated Arylquin 1 at 4° C. for 2 h. The beads were then washed four times with buffer (40 mM Hepes, pH 7.8; 140 mM NaCl; 10 mM NaF; 10% Glycerol, 1 mM EDTA), and bound protein was eluted with 50 μL of 2.5 mM Biotin/PBS. Eluted proteins were resolved by SDS-PAGE and Coomassie blue staining.

[1] = system: normal cells (MEFs, HELs, HBEC, PrE, PrS); assay: Apoptosis by ICC for active caspase-3, normal cells; type: cell-based, human, mouse
Protocol: Normal cells (MEFs, HELs, HBEC, PrE, prostate stromal cells PrS) or lung cancer cells (human A549 and H460, mouse LLC1 and KP7B) and prostate cancer cells (PC-3 MM2, DU145, LNCaP) were treated with the indicated amounts (0.5, 1 and 10 μM) of Arylquin 1 or vehicle (V) for 24 h, and apoptosis was determined by ICC for active caspase-3. Data shown represent mean values from three independent experiments±s.d. Asterisks (**) or (*) indicate statistical significance (P<0.0001) or (P<0.001), respectively, by the Student t test.
as §1

[2] = system: cancer cells co-cultured with Par-4+/+ MEFs; assay: Apoptosis in co-cultures of Par-4+/+ MEFs and cancer cells; type: cell-based
Protocol: (§2) Top: Cancer cells were co-cultured with MEFs and treated with Arylquin 1 (500 nM) or vehicle and tested for apoptosis. Bottom: Serum from mice injected with Arylquin 1 (Aq) or corn oil vehicle (V), was examined by Western blot analysis (not shown). Aliquots of serum from these mice were either directly added to the growth medium of cells in culture, or incubated with the indicated antibody, and then added to the growth medium of PC-3 MM2 cells to test for apoptosis.
as §1

cell surface GRP78 = assay: Paracrine apoptosis by CM from treated MEFs with GRP78 neutralizing antibody; type: cell-based; details: CM from Par-4+/+ MEFs treated with 500 nM
Protocol: FIGS. 4A and 4B are bar graphs illustrating percent cell surface GRP-78 expression and apoposis activity for an arylquinoline of the present disclosure. FIG. 4A is a bar graph showing cell surface GRP78 levels in cancer cells treated with CM from MEFs exposed to Arylquin 1. Par-4+/+ MEFs or Par-4−/− MEFs were treated with vehicle or Arylquin 1 (500 nM) for 24 h. The CM from these MEFs was incubated with the indicated cancer cells for 24 h. The cancer cells were then subjected to FACS analysis for cell surface GRP78 expression. Data shown represent mean values of three experiments±s.d. Asterisks (**) or (*) indicate statistical significance (P<0.0001) or (P<0.001), respectively, based on two-way ANOVA with data normality and equality of variance assumptions. […] After 24 h, the cancer cells were scored for apoptosis by ICC for active caspase-3. […]
as §1, with “See Hebbar, N., Wang, C. & Rangnekar, V. M. J Cell Phys 227, 3715-3721 (2012).” left out

prostate cancer cells = assay: Par-4 secretion from prostate cancer cells; type: cell-based; details: relative to vehicle control
DU145 cells = assay: Apoptosis, DU145 cells; type: cell-based, human; details: 500 nM
Protocol: as §1

[3] = system: cancer cell cultures (PC-3 MM2 cells); assay: Ex vivo apoptosis of cancer cell cultures by serum from treated mice; type: in vivo, C57BL/6 mice (serum)
Protocol: as §2
(§3) Animal experiments: C57BL/6 mice were injected via the intraperitoneal route with Arylquin 1 (10 mg/kg body weight) or corn oil vehicle, and whole-blood samples were collected 24 h later. Serum was separated from the blood samples, heated at 56° C. to inactivate complement. Aliquots of the mouse serum samples were added to the growth medium (final 20% mouse serum) of normal and cancer cells in culture and tested for induction of ex vivo apoptosis in cancer cells. All animal procedures were performed with University of Kentucky IACUC approval.

Par-4 in serum = assay: Circulating Par-4 in serum of injected mice; type: in vivo, C57BL/6 mice; details: 10 mg/kg intraperitoneal, 24 h
Protocol: as §3

Q: With `CN(C)c1ccc2cc(-c3ccccc3F)c(N)nc2c1` [Arylquin 1, 3-(2-fluorophenyl)-N^7,N^7-dimethylquinoline-2,7-diamine] as the compound, how does the “apoptosis of normal cells in co-culture” value (normal HEL cells) read?
A: not normal HEL cells

Q: And the “target protein identified by pull-down” value (vimentin)?
A: Vimentin was the primary target

Q: What about the direct apoptosis ([1]; 500 nM) of the same compound?
A: did not directly induce apoptosis

Q: And the apoptosis ([1]; 0.5, 1 and 10 μM, 24 h)?
A: not in normal cells

Q: And the “apoptosis of cancer cells in co-culture” value ([2]; 500 nM, Par-4+/+ MEFs, relative to vehicle)?
A: resulted in apoptosis of the cancer cells

Q: What about the “paracrine apoptosis of lung cancer cells by Par-4 secreted from normal cells” value ([2]; p53-wild type, p53-deficient and oncogenic K-ras lung cancer cells) of the same compound?
A: adequate to induce paracrine apoptosis

Q: What about the “mediation of paracrine apoptosis” value (cell surface GRP78) of the same compound?
A: mediated via cell surface GRP78

Q: And the Par-4 secretion (prostate cancer cells)?
A: showed induction of Par-4 secretion

Q: What about the apoptosis (DU145 cells) of the same compound?
A: not in LNCaP or DU145 cells

Q: What about the “pro-apoptotic activity in serum after Par-4 antibody” value ([3]; serum incubated with Par-4 antibody) of the same compound?
A: neutralized by the Par-4 antibody

Q: What about the “ex vivo apoptosis of cancer cell cultures by serum” value ([3]; serum of treated vs vehicle-treated mice, final 20% mouse serum) of the same compound?
A: significantly higher (P<0.001) ex vivo apoptosis

Q: And the “Par-4 secretion in serum relative to vehicle control” value (Par-4 in serum)?
A: 5 fold
